The values that follow come from ChEMBL document CHEMBL3886358, “Quinolyl-containing hydroxamic acid compound and preparation method thereof, and pharmaceutical composition containing this compound and use thereof” (2015).

For one experiment, the target named is Histone deacetylase 3 (Homo sapiens, UniProt O15379). In words: (§1) Inhibition Assay: The inhibitions of activities of HDAC enzymes by the compounds N1'-[3-fluoro-4-[[7-[4-(hydroxyamino)-4-oxobutoxy]-6-methoxy-4-quinolyl]oxy]phenyl]-N1-(4-fluoro phenyl)cyclopropane-1,1-dicarboxamide prepared in Example 9 and N1'-[3-fluoro-4-[[7-[6-(hydroxyamino)-6-oxohexyloxy]-6-methoxy-4-quinolyl]oxy]phenyl]-N1-(4-fluo rophenyl)cyclopropane-1,1-dicarboxamide prepared in Example 13 were measured by Reaction Biology Corporation (Reaction Biology Corp., One Great Valley Parkway, Suite 2, Malvern, PA 19355, USA . http://www.reactionbiology.com/pages/hdac.htm). The HDAC enzymes tested include the following 11 HDAC isoforms: HDAC1, HDAC2, HDAC3, HDAC4, HDAC5, HDAC6, HDAC7, HDAC8, HDAC9, HDAC10 and HDAC11.Specific steps were as follows: The compound of the present invention was dissolved in dimethyl sulfoxide (DMSO) to make a stock solution of 10 mM. The stock solution was diluted in 4-fold series starting from 10 mM to prepare 10 different dosages.

In a further experiment the target is T1, Histone deacetylase 7 (Homo sapiens, UniProt Q8WUI4).
T1 sequence (Q8WUI4 whole entry): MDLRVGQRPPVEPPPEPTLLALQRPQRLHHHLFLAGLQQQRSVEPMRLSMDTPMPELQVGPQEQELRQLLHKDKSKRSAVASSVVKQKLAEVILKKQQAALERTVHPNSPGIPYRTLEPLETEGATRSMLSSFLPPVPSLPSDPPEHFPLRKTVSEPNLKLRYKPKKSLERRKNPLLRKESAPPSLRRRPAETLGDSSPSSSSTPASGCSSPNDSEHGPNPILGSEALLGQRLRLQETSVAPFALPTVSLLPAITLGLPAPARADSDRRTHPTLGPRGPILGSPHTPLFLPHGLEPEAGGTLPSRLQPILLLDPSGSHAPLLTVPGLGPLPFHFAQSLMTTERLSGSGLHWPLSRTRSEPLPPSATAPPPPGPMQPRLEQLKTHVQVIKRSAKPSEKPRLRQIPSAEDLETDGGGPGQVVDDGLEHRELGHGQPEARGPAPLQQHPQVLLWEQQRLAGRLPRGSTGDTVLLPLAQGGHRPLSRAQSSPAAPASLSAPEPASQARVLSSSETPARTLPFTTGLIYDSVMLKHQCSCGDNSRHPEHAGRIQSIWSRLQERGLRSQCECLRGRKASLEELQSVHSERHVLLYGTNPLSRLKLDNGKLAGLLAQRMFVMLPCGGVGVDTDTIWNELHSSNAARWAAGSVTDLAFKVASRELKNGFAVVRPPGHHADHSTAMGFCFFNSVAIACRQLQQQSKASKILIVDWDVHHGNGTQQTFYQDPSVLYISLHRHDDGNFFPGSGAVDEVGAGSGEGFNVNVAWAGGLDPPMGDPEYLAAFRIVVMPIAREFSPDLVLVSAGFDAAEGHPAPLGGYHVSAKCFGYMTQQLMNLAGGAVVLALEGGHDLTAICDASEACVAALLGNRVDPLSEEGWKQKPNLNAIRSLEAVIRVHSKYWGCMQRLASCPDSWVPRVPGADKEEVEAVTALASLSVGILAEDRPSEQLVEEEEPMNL
The experiment is described as §1.

The target in the next experiment is Histone deacetylase 9 (Homo sapiens, UniProt Q9UKV0). The description is as §1.
In experiment [1] the target is ALK tyrosine kinase receptor (Homo sapiens, UniProt Q9UM73). In words: (§2) Sci. USA 1988, 85(23), 9312). Specific steps were as follows: The compound of the present invention was dissolved in dimethyl sulfoxide (DMSO) to make a stock solution of 2 mM, then the stock solution was diluted with DMSO following a 7 half-log series to concentrations ranging from 2 uM to 600 pM. The experiment is classed as cell-based.

For experiment [2], the target named is Hepatocyte growth factor receptor (Homo sapiens, UniProt P08581). The experiment is described as §2. It counts as cell-based.
The target of experiment [3] is Platelet-derived growth factor receptor beta (Homo sapiens, UniProt P09619). The description is as §2. The experiment is classed as cell-based.
The target in experiment [4] is Proto-oncogene tyrosine-protein kinase Src (Homo sapiens, UniProt P12931). Described as §2. It counts as cell-based.
Experiment [5] has as its target Proto-oncogene tyrosine-protein kinase receptor Ret (Homo sapiens, UniProt P07949). The description is as §2. It counts as cell-based.
Experiment [6] addresses T2, Tyrosine-protein kinase receptor UFO (Homo sapiens, UniProt P30530).
T2 sequence (P30530 whole entry): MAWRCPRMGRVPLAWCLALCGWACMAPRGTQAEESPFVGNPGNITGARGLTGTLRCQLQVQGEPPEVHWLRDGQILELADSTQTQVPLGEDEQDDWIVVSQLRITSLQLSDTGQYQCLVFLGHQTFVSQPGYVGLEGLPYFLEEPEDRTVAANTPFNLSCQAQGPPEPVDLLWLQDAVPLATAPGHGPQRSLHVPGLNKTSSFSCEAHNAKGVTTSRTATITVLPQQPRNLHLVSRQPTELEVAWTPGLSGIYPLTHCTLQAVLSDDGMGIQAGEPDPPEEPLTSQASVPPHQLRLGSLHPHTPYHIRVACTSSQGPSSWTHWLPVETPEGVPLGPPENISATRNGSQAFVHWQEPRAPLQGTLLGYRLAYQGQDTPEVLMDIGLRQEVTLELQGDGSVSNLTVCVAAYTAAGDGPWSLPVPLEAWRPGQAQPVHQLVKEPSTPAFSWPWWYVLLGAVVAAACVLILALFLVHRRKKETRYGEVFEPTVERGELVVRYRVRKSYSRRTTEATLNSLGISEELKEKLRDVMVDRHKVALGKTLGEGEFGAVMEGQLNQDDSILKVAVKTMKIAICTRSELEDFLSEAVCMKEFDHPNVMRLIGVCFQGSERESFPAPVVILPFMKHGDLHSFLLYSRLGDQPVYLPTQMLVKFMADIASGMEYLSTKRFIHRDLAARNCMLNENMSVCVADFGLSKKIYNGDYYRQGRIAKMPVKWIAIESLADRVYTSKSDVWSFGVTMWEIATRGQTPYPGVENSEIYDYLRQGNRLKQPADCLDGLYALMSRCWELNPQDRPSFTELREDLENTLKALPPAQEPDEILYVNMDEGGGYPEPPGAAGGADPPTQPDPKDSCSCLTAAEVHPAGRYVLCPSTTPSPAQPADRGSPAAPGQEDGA
Described as §2. The experiment is classed as cell-based.

Experiment [7] deals with Vascular endothelial growth factor receptor 2 (Homo sapiens, UniProt P35968). Described as §2. The experiment is classed as cell-based.

What is called pIC50 is −log10 of the IC50, conventionally taken in molar units.

pIC50: −log10 of the molar value.

Chain of Histone deacetylase 3 (O15379 whole entry, canonical isoform): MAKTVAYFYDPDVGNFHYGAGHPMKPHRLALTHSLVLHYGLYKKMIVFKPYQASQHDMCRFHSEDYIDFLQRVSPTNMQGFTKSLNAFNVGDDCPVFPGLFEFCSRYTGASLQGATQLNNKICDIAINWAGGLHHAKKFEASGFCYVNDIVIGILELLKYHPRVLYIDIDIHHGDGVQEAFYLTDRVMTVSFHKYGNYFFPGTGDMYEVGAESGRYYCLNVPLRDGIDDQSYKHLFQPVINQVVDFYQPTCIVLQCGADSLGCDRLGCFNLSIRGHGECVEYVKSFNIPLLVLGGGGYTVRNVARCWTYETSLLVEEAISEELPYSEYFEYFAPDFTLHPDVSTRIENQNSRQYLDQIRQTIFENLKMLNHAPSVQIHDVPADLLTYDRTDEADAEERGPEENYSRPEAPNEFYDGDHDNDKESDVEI
Chain of Histone deacetylase 9 (Q9UKV0 whole entry): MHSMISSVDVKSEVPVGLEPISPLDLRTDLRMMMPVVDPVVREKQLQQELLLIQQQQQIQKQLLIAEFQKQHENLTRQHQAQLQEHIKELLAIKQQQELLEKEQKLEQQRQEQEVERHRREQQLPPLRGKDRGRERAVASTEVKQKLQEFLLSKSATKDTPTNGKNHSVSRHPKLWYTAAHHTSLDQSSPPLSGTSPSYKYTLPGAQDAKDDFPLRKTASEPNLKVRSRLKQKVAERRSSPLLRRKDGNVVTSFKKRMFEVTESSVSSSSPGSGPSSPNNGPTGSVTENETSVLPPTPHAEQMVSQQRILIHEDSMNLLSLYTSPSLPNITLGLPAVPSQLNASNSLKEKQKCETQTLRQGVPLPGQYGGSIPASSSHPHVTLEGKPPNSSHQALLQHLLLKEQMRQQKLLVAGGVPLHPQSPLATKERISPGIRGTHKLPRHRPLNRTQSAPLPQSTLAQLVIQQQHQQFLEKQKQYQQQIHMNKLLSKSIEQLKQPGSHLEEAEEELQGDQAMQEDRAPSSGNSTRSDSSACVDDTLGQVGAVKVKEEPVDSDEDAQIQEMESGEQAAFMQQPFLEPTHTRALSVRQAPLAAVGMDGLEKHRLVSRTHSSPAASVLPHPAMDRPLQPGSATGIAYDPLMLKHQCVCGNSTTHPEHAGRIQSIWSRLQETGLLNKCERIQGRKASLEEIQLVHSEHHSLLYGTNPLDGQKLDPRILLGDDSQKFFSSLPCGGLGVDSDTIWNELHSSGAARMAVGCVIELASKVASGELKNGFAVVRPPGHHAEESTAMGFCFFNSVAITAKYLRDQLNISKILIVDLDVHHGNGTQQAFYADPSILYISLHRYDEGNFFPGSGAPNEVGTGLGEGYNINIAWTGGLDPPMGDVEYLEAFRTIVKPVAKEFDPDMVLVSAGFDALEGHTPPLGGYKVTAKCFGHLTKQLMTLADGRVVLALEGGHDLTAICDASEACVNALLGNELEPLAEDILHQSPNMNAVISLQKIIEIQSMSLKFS
Chain of Proto-oncogene tyrosine-protein kinase Src (P12931 2-536 limits assumed): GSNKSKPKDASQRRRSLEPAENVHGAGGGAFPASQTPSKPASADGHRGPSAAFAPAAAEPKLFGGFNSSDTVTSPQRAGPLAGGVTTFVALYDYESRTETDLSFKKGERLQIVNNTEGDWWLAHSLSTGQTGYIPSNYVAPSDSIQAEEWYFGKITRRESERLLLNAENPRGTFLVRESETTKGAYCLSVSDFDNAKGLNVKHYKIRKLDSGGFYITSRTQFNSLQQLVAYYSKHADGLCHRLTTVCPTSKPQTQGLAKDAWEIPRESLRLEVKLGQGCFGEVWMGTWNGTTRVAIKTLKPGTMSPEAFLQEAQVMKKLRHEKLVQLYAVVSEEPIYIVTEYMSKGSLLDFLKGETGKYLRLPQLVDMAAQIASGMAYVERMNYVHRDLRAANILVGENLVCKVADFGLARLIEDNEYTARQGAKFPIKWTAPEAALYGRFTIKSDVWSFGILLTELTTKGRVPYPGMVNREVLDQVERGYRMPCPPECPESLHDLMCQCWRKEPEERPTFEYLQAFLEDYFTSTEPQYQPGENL
Chain of Platelet-derived growth factor receptor beta (P09619 whole entry): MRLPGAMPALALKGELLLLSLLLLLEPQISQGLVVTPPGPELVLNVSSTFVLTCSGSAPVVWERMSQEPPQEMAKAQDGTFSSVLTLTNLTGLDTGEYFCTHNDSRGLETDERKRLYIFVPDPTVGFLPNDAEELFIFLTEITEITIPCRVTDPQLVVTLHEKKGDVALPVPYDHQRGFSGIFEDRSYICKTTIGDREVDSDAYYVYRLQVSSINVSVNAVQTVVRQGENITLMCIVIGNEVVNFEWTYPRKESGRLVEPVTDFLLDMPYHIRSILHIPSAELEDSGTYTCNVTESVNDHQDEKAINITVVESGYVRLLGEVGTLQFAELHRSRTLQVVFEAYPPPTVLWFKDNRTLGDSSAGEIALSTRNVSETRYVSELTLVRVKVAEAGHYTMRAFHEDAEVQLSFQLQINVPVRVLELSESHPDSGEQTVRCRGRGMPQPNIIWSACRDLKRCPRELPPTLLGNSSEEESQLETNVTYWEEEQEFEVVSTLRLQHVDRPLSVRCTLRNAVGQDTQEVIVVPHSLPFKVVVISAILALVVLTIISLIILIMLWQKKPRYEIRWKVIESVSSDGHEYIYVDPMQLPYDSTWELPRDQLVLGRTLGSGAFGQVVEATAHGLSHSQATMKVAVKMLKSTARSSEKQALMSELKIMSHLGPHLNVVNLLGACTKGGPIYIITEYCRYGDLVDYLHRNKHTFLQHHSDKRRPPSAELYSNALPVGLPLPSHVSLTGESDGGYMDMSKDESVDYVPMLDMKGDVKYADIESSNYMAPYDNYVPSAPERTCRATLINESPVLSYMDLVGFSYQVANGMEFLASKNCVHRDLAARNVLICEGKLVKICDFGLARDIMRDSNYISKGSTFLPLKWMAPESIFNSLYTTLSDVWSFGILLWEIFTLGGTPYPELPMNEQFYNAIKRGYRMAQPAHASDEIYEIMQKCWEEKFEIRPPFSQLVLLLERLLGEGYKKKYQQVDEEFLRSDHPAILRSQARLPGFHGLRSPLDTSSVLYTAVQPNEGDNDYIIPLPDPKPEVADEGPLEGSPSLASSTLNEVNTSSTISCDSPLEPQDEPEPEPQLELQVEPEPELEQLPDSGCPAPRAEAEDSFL
Chain of Vascular endothelial growth factor receptor 2 (P35968 whole entry): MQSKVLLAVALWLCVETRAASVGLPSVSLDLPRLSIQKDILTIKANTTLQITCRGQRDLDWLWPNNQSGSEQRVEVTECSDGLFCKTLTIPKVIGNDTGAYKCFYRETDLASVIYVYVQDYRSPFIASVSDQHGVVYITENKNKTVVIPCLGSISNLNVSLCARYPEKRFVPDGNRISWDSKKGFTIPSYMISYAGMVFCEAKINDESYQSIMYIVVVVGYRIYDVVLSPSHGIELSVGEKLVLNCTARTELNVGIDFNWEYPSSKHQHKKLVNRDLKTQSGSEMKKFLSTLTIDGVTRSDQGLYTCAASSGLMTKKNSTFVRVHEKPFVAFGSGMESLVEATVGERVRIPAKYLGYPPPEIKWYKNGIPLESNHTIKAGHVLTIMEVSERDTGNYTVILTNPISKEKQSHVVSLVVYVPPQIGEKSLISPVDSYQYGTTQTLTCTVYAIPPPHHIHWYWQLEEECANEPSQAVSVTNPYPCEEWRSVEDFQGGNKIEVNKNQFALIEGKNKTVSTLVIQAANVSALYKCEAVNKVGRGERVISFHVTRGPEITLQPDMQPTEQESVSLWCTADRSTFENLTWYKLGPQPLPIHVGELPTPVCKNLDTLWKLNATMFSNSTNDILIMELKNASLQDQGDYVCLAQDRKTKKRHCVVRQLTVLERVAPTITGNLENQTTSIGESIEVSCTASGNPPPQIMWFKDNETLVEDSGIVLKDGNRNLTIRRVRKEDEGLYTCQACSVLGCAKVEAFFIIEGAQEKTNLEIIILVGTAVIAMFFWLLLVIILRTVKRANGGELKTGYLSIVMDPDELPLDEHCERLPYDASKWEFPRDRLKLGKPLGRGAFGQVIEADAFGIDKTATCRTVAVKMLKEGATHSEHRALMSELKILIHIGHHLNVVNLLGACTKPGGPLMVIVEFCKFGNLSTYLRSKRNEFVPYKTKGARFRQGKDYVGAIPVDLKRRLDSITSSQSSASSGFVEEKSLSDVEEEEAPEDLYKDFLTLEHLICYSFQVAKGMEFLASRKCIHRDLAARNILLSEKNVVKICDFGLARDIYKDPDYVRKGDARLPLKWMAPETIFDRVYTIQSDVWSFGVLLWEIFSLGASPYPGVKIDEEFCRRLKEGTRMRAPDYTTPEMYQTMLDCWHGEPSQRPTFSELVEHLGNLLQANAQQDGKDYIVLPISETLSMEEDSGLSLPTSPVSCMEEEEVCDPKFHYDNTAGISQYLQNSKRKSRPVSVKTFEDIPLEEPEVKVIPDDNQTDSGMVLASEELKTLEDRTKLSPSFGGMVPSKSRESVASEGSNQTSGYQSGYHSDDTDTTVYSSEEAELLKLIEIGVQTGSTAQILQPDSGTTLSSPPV

On to `COc1cc2c(Oc3ccc(NC(=O)C4(C(=O)Nc5ccc(F)cc5)CC4)cc3F)ccnc2cc1OCCCCCC(=O)NO`, for which the pIC50 against Histone deacetylase 3, at Histone deacetylase 7 and at Histone deacetylase 9 was under 5.00 in each case.
In the case of `COc1cc2c(Oc3ccc(NC(=O)C4(C(=O)Nc5ccc(F)cc5)CC4)cc3F)ccnc2cc1OCCCC(=O)NO`, the pIC50 in [1] was under 6.20; in [2] it was 6.92; in experiment [3] it was 6.76; in experiment [4], under 6.20; in experiment [5], 6.81; in experiment [6] it was 7.72. Moreover, the pIC50 in experiment [7] was 7.92; against Histone deacetylase 3, under 5.00; against Histone deacetylase 7, under 5.00; against Histone deacetylase 9, under 5.00.
